According to ChEMBL document CHEMBL1201862, “PubChem BioAssay data set” (2004):
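1) Cells in 96-well plates. 2) Compound, 48 h, 5 concentrations. 3) Linear interpolation between surrounding doses. 4) Unreached endpoint = highest concentration. GI50 is the concentration that inhibits growth by half.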 The source made the active and inactive calls. Rule as the data show it: active = GI50 up to about 1.1 µM and inactive = higher. Where a SMILES comes first, the peptide text is derived from it. The star is where a group is joined. Cbz = O=C(OCc1ccccc1)*

How the values were obtained:
Assay in all cases: NCI tumour cell line growth inhibition, 48 h
M19-MEL = system: M19-MEL
HOP-92 = system: HOP-92
OVCAR-5 = system: OVCAR-5
HCT-15 = system: HCT-15
MOLT-4 = system: MOLT-4
NCI-H522 = system: NCI-H522
RPMI-8226 = system: RPMI-8226
UACC-257 = system: UACC-257
NCI-H460 = system: NCI-H460
SN12C = system: SN12C
LOX IMVI = system: LOX IMVI
HCC 2998 = system: HCC 2998
SF-268 = system: SF-268
TK-10 = system: TK-10
RXF 393 = system: RXF 393
CCRF-CEM = system: CCRF-CEM
MDA-MB-231 = system: MDA-MB-231
Hs-578T = system: Hs-578T
PC-3 = system: PC-3
DU-145 = system: DU-145

Compound | GI50 (M19-MEL) | GI50 (HOP-92) | GI50 (OVCAR-5) | GI50 (HCT-15) [µM] | GI50 (MOLT-4) | GI50 (NCI-H522) | GI50 (RPMI-8226) | GI50 (UACC-257) | GI50 (NCI-H460) | GI50 (SN12C) | GI50 (LOX IMVI) | GI50 (HCC 2998) | GI50 (SF-268) | GI50 (TK-10) | GI50 (RXF 393) | GI50 (CCRF-CEM) | GI50 (MDA-MB-231) | GI50 (Hs-578T) | GI50 (PC-3) | GI50 (DU-145)
Nc1c(C(=O)Nc2ccccc2O)[n+]([O-])c2ccccc2[n+]1[O-] | 14.2 µM (inactive) | > 100 µM (inactive) | > 100 µM (inactive) | 30.5 | 45.8 µM (inactive) | 43.4 µM (inactive) | 22.3 µM (inactive) | 18.8 µM (inactive) | 27 µM (inactive) | 63.2 µM (inactive) | – | – | – | – | – | – | – | – | – | –
O=C1C(=O)N(c2nccs2)C(=O)C(=O)C1c1nc2ccccc2s1 | > 100 µM (inactive) | > 100 µM (inactive) | > 100 µM (inactive) | > 100 | – | – | > 100 µM (inactive) | > 100 µM (inactive) | > 100 µM (inactive) | > 100 µM (inactive) | > 100 µM (inactive) | > 100 µM (inactive) | > 100 µM (inactive) | > 100 µM (inactive) | > 100 µM (inactive) | – | – | – | – | –
O=C(Nc1ccccc1)OCc1nc2c([nH]1)C(=O)C=CC2=O | 16 µM (inactive) | 24.6 µM (inactive) | 22.2 µM (inactive) | 18.2 | 2.32 µM (inactive) | – | 18.7 µM (inactive) | 3.42 µM (inactive) | 19.8 µM (inactive) | 17.2 µM (inactive) | 16.1 µM (inactive) | 16.5 µM (inactive) | – | 14 µM (inactive) | 10.8 µM (inactive) | 3.34 µM (inactive) | – | – | – | –
CCc1c(C#N)c(=O)[nH]c(=O)n1CCN1CCN(C(=O)NCCCCCCNC(=O)N2CCN(CCn3c(CC)c(C#N)c(=O)[nH]c3=O)CC2)CC1 | > 100 µM (inactive) | – | – | > 100 | > 100 µM (inactive) | – | > 100 µM (inactive) | > 100 µM (inactive) | > 100 µM (inactive) | > 100 µM (inactive) | > 100 µM (inactive) | > 100 µM (inactive) | – | > 100 µM (inactive) | – | > 100 µM (inactive) | – | – | – | –
CC(C)C1=CC23CCC4C(C)(C(=O)O)CCCC4(C)C2CC1C1C(=O)N(c2ccccc2)C(=O)C13 (centres undefined) | 57.8 µM (inactive) | 32.7 µM (inactive) | > 100 µM (inactive) | 30.9 | > 100 µM (inactive) | 49.1 µM (inactive) | > 100 µM (inactive) | 26.1 µM (inactive) | 38.9 µM (inactive) | 45.9 µM (inactive) | 54.1 µM (inactive) | – | 41.1 µM (inactive) | 43.5 µM (inactive) | 27.4 µM (inactive) | 56.6 µM (inactive) | – | – | – | –
O=C(O)CC1C(=O)OC2C3COC(=O)c4cc(O)c(O)c(O)c4-c4c(cc(O)c(O)c4O)C(=O)OC2C(OC(=O)c2cc(O)c(O)c4c2C1C(O)C(=O)O4)C(OC(=O)c1cc(O)c(O)c(O)c1)O3 (centres undefined) | – | 16.7 µM (inactive) | 13.5 µM (inactive) | 17.5 | 27.3 µM (inactive) | 15.9 µM (inactive) | 36.9 µM (inactive) | 34.1 µM (inactive) | 16 µM (inactive) | 17.5 µM (inactive) | 14 µM (inactive) | > 100 µM (inactive) | 36.6 µM (inactive) | > 100 µM (inactive) | 4.39 µM (inactive) | 13.7 µM (inactive) | 26.2 µM (inactive) | 56.5 µM (inactive) | 33.8 µM (inactive) | 36.4 µM (inactive)
COC(=O)CCC12CCC(=O)C1[C@@H](C(=O)OC)C[C@H]2C(=O)OC (some centres undefined) | > 100 µM (inactive) | – | > 100 µM (inactive) | > 100 | > 100 µM (inactive) | > 100 µM (inactive) | > 100 µM (inactive) | > 100 µM (inactive) | > 100 µM (inactive) | > 100 µM (inactive) | > 100 µM (inactive) | > 100 µM (inactive) | > 100 µM (inactive) | > 100 µM (inactive) | > 100 µM (inactive) | > 100 µM (inactive) | – | – | – | –
CC(=O)Oc1c(C)cc2c(c1C)C(C)(C)CN2C(=O)C(C)(C)C | – | 20.1 µM (inactive) | > 100 µM (inactive) | > 100 | 25.4 µM (inactive) | > 100 µM (inactive) | 53.8 µM (inactive) | > 100 µM (inactive) | > 100 µM (inactive) | > 100 µM (inactive) | > 100 µM (inactive) | > 100 µM (inactive) | > 100 µM (inactive) | > 100 µM (inactive) | 84.9 µM (inactive) | 65.9 µM (inactive) | > 100 µM (inactive) | > 100 µM (inactive) | 35.1 µM (inactive) | > 100 µM (inactive)
CN(C)C(=S)Nc1nnc(NC23CC4CC(CC(C4)C2)C3)s1.[O-][Cl+3]([O-])([O-])O | 19.6 µM (inactive) | – | 10 µM (inactive) | 13.6 | 14.8 µM (inactive) | 16.1 µM (inactive) | 16 µM (inactive) | 14.5 µM (inactive) | 12.6 µM (inactive) | 15.3 µM (inactive) | 17.5 µM (inactive) | 18.9 µM (inactive) | 16.4 µM (inactive) | 40.5 µM (inactive) | 17.1 µM (inactive) | 15 µM (inactive) | – | – | – | –
Cc1ccc(S(=O)(=O)Oc2coc(CO)cc2=O)cc1 | – | 16 µM (inactive) | 17.8 µM (inactive) | 13.3 | 13.4 µM (inactive) | 1.76 µM (inactive) | 3.97 µM (inactive) | 15.3 µM (inactive) | 14.4 µM (inactive) | 12.7 µM (inactive) | 3.05 µM (inactive) | 13.7 µM (inactive) | 9.42 µM (inactive) | 17.5 µM (inactive) | 13.5 µM (inactive) | 3.08 µM (inactive) | 18.6 µM (inactive) | 19.5 µM (inactive) | 15.1 µM (inactive) | 12.2 µM (inactive)
Cc1ccnc2nc(-c3ccc(Cl)cc3)cc(O)c12 | – | 2.17 µM (inactive) | > 100 µM (inactive) | 2.32 | 3.99 µM (inactive) | 2.58 µM (inactive) | 2.94 µM (inactive) | > 100 µM (inactive) | 3.85 µM (inactive) | 8.2 µM (inactive) | 4.13 µM (inactive) | > 27.4 µM (inactive) | 28.4 µM (inactive) | > 60.5 µM (inactive) | 8.45 µM (inactive) | 4.63 µM (inactive) | 14.8 µM (inactive) | 3.9 µM (inactive) | 2.89 µM (inactive) | 13.5 µM (inactive)
COc1ccc2nc(NC(=O)/C(C#N)=C/c3ccccc3)sc2c1 | – | 32.7 µM (inactive) | > 100 µM (inactive) | 24.7 | 27.5 µM (inactive) | 15.2 µM (inactive) | 23.4 µM (inactive) | 27 µM (inactive) | 38 µM (inactive) | 40.6 µM (inactive) | 39.4 µM (inactive) | 44.3 µM (inactive) | > 56.5 µM (inactive) | 26.4 µM (inactive) | > 61.4 µM (inactive) | 14.1 µM (inactive) | > 79.8 µM (inactive) | > 48.5 µM (inactive) | > 61 µM (inactive) | > 52.6 µM (inactive)
C[C@@H](c1ccccc1)N(CC#N)[C@H]1CCC[C@]1(O)/C=C/c1ccc2c(c1)OCO2 | – | > 25 µM (inactive) | > 25 µM (inactive) | > 25 | > 25 µM (inactive) | > 25 µM (inactive) | > 25 µM (inactive) | > 25 µM (inactive) | > 25 µM (inactive) | > 25 µM (inactive) | > 25 µM (inactive) | > 25 µM (inactive) | > 25 µM (inactive) | > 25 µM (inactive) | > 25 µM (inactive) | > 25 µM (inactive) | > 25 µM (inactive) | > 25 µM (inactive) | > 25 µM (inactive) | > 25 µM (inactive)
COc1ccc2c(c1)CN([C@@H](C)[C@H]1CC[C@H]3[C@@H]4CC[C@H]5C[C@@H](O)CC[C@]5(C)[C@H]4CC[C@]13C)CO2 | – | 1.74 µM (inactive) | 3.13 µM (inactive) | 1.32 | 1.03 µM (active) | 1.95 µM (inactive) | 0.541 µM (active) | 2.2 µM (inactive) | 1.23 µM (inactive) | 8.57 µM (inactive) | 1.58 µM (inactive) | 1.61 µM (inactive) | 2.26 µM (inactive) | 2.79 µM (inactive) | 1.19 µM (inactive) | 1.85 µM (inactive) | 2.42 µM (inactive) | 1.61 µM (inactive) | 2.44 µM (inactive) | 4.68 µM (inactive)
N#Cc1nc(CCC(C(=O)O)N2C(=O)c3ccccc3C2=O)oc1N (centres undefined) | – | > 100 µM (inactive) | > 100 µM (inactive) | > 100 | > 100 µM (inactive) | > 100 µM (inactive) | > 100 µM (inactive) | > 100 µM (inactive) | > 100 µM (inactive) | > 100 µM (inactive) | > 10 µM (inactive) | > 100 µM (inactive) | > 100 µM (inactive) | > 100 µM (inactive) | > 100 µM (inactive) | > 100 µM (inactive) | > 100 µM (inactive) | > 100 µM (inactive) | > 100 µM (inactive) | > 100 µM (inactive)
CCOC(=O)CCC(NC(=O)C(Cc1ccccc1)NC(=O)OCc1ccccc1)C(=O)OCC (stereo not drawn) (Cbz-Phe-Glu(OEt)-OEt; configuration not given here) | – | 18.5 µM (inactive) | 16.7 µM (inactive) | 20.1 | 30.2 µM (inactive) | 15.7 µM (inactive) | 35 µM (inactive) | 16.9 µM (inactive) | 20.5 µM (inactive) | 20.7 µM (inactive) | 14.7 µM (inactive) | 17.7 µM (inactive) | 16.2 µM (inactive) | 19.4 µM (inactive) | 17.9 µM (inactive) | 31.3 µM (inactive) | 14.9 µM (inactive) | 14.8 µM (inactive) | 18.2 µM (inactive) | 6.58 µM (inactive)
